# Reference: patent US10954269B2, “Anti-inflammatory tripeptides” (Dr. August Wolff Gmbh & Co. KG Arzneimittel, priority 2013, dated 2021)
# What was measured:
# Details in all cases: substance 10^−9M
# primary human T-cells = experiment: Cytokine secretion on protein level in activated primary human T-cells (13-plex FACS / Luminex, supernatant); type: cell-based
# Outline: (§1)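 Stimulus: PMA/Ionomycin or IFN-γ, 48 h; cells: HaCaT or human peripheral-blood T-cells; tripeptide treatment; readout: supernatant cytokines via 13-plex FACS or Luminex, 48–72 h post-stimulation.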
# primary murine T-cells = experiment: Cytokine secretion on protein level in activated primary murine T-cells (13-plex FACS / Luminex, supernatant); type: cell-based, C57BL/6 mice
# Outline: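 T-cells from secondary lymphatic organs of naïve C57BL/6 mice, stimulated with PMA/Ionomycin or IFN-γ; supernatant cytokines measured by 13-plex FACS 48 h and 72 h after stimulation. In another run, PMA/Ionomycin-stimulated cells received compounds at 10^−7, 10^−9 and 10^−11 M, with IFN-γ, IL-17 and IL-10 measured by Luminex.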
# [1] = test system: human keratinocyte cell line (HaCaT); experiment: Cytokine secretion on protein level in activated human keratinocyte cell line HaCaT (13-plex FACS / Luminex, supernatant); type: cell-based
# Outline: as §1
# [2] = primary human T-cells stimulated with IFN-γ
# [3] = primary human T-cells stimulated with PBS
# [4] = primary human T-cells stimulated with PMA/Ionomycin
# [5] = primary murine T-cells stimulated with IFN-γ
# [6] = primary murine T-cells stimulated with PBS
# [7] = primary murine T-cells stimulated with PMA/Ionomycin
# [8] = HaCaT stimulated with PMA/Ionomycin
substance,measurement,setting,value
"N^α,N^α-dimethyl-(L)-Lys-(D)-Pro-N^α-methyl-(L)-Thr-NH2 [Example 4]",IL-1 cytokine concentration,primary human T-cells; [2],366.09 pg/mL
same,IL-2 cytokine concentration,primary human T-cells; [2],326.11 pg/mL
same,IL-4 cytokine concentration,primary human T-cells; [2],176.6 pg/mL
same,IL-5 cytokine concentration,primary human T-cells; [2],27.34 pg/mL
same,IL-6 cytokine concentration,primary human T-cells; [2],180.43 pg/mL
same,IL-9 cytokine concentration,primary human T-cells; [2],10.84 pg/mL
same,IL-10 cytokine concentration,primary human T-cells; [2],75.72 pg/mL
same,IL-12p70 cytokine concentration,primary human T-cells; [2],0 pg/mL
same,IL-13 cytokine concentration,primary human T-cells; [2],212.64 pg/mL
same,IL-17 cytokine concentration,primary human T-cells; [2],162.73 pg/mL
same,IL-22 cytokine concentration,primary human T-cells; [2],0 pg/mL
same,TNF-α cytokine concentration,primary human T-cells; [2],103.24 pg/mL
same,IL-1 cytokine concentration,primary human T-cells; [3],122.89 pg/mL
same,IL-2 cytokine concentration,primary human T-cells; [3],0 pg/mL
same,IL-4 cytokine concentration,primary human T-cells; [3],60.49 pg/mL
same,IL-5 cytokine concentration,primary human T-cells; [3],0 pg/mL
same,IL-6 cytokine concentration,primary human T-cells; [3],226.2 pg/mL
same,IL-9 cytokine concentration,primary human T-cells; [3],3.71 pg/mL
same,IL-10 cytokine concentration,primary human T-cells; [3],0 pg/mL
same,IL-12p70 cytokine concentration,primary human T-cells; [3],0 pg/mL
same,IL-13 cytokine concentration,primary human T-cells; [3],0 pg/mL
same,IL-17 cytokine concentration,primary human T-cells; [3],0 pg/mL
same,IL-22 cytokine concentration,primary human T-cells; [3],0 pg/mL
same,INF-α cytokine concentration,primary human T-cells; [3],0 pg/mL
same,TNF-α cytokine concentration,primary human T-cells; [3],0 pg/mL
same,IL-1 cytokine concentration,primary human T-cells; [4],689.99 pg/mL
same,IL-2 cytokine concentration,primary human T-cells; [4],1227.93 pg/mL
same,IL-4 cytokine concentration,primary human T-cells; [4],239.37 pg/mL
same,IL-5 cytokine concentration,primary human T-cells; [4],473.23 pg/mL
same,IL-6 cytokine concentration,primary human T-cells; [4],1280 pg/mL
same,IL-9 cytokine concentration,primary human T-cells; [4],239.43 pg/mL
same,IL-10 cytokine concentration,primary human T-cells; [4],417.95 pg/mL
same,IL-12p70 cytokine concentration,primary human T-cells; [4],0 pg/mL
same,IL-13 cytokine concentration,primary human T-cells; [4],1081.09 pg/mL
same,IL-17 cytokine concentration,primary human T-cells; [4],1356.78 pg/mL
same,IL-22 cytokine concentration,primary human T-cells; [4],0 pg/mL
same,INF-α cytokine concentration,primary human T-cells; [4],5384.11 pg/mL
same,TNF-α cytokine concentration,primary human T-cells; [4],4112.99 pg/mL
same,IL-1 cytokine concentration,primary murine T-cells; [5],100.01 pg/mL
same,IL-2 cytokine concentration,primary murine T-cells; [5],206.76 pg/mL
same,IL-4 cytokine concentration,primary murine T-cells; [5],0 pg/mL
same,IL-5 cytokine concentration,primary murine T-cells; [5],486.86 pg/mL
same,IL-6 cytokine concentration,primary murine T-cells; [5],235.86 pg/mL
same,IL-10 cytokine concentration,primary murine T-cells; [5],1250.21 pg/mL
same,IL-13 cytokine concentration,primary murine T-cells; [5],0 pg/mL
same,IL-17 cytokine concentration,primary murine T-cells; [5],92.71 pg/mL
same,IL-21 cytokine concentration,primary murine T-cells; [5],814.33 pg/mL
same,IL-22 cytokine concentration,primary murine T-cells; [5],114.68 pg/mL
same,IL-27 cytokine concentration,primary murine T-cells; [5],138.81 pg/mL
same,TNF-α cytokine concentration,primary murine T-cells; [5],47.36 pg/mL
same,IFN-γ cytokine concentration,primary murine T-cells; [6],2456.98 pg/mL
same,IL-1 cytokine concentration,primary murine T-cells; [6],78.5 pg/mL
same,IL-2 cytokine concentration,primary murine T-cells; [6],147.3 pg/mL
same,IL-4 cytokine concentration,primary murine T-cells; [6],119.19 pg/mL
same,IL-5 cytokine concentration,primary murine T-cells; [6],377.16 pg/mL
same,IL-6 cytokine concentration,primary murine T-cells; [6],189.26 pg/mL
same,IL-10 cytokine concentration,primary murine T-cells; [6],1006.65 pg/mL
same,IL-13 cytokine concentration,primary murine T-cells; [6],0 pg/mL
same,IL-17 cytokine concentration,primary murine T-cells; [6],0 pg/mL
same,IL-21 cytokine concentration,primary murine T-cells; [6],330.42 pg/mL
same,IL-22 cytokine concentration,primary murine T-cells; [6],84.16 pg/mL
same,IL-27 cytokine concentration,primary murine T-cells; [6],329.85 pg/mL
same,TNF-α cytokine concentration,primary murine T-cells; [6],18.91 pg/mL
same,IFN-γ cytokine concentration,primary murine T-cells; [7],3234.33 pg/mL
same,IL-1 cytokine concentration,primary murine T-cells; [7],196.76 pg/mL
same,IL-2 cytokine concentration,primary murine T-cells; [7],292.52 pg/mL
same,IL-4 cytokine concentration,primary murine T-cells; [7],123.15 pg/mL
same,IL-5 cytokine concentration,primary murine T-cells; [7],465.44 pg/mL
same,IL-6 cytokine concentration,primary murine T-cells; [7],245.96 pg/mL
same,IL-10 cytokine concentration,primary murine T-cells; [7],1383.24 pg/mL
same,IL-13 cytokine concentration,primary murine T-cells; [7],0 pg/mL
same,IL-17 cytokine concentration,primary murine T-cells; [7],391.98 pg/mL
same,IL-21 cytokine concentration,primary murine T-cells; [7],987.02 pg/mL
same,IL-22 cytokine concentration,primary murine T-cells; [7],48.93 pg/mL
same,IL-27 cytokine concentration,primary murine T-cells; [7],80.01 pg/mL
same,TNF-α cytokine concentration,primary murine T-cells; [7],62.85 pg/mL
same,IL-1 cytokine concentration,[1]; HaCaT stimulated with IFN-γ,0 pg/mL
same,IL-2 cytokine concentration,[1]; HaCaT stimulated with IFN-γ,0 pg/mL
same,IL-4 cytokine concentration,[1]; HaCaT stimulated with IFN-γ,0 pg/mL
same,IL-5 cytokine concentration,[1]; HaCaT stimulated with IFN-γ,0 pg/mL
same,IL-6 cytokine concentration,[1]; HaCaT stimulated with IFN-γ,224.07 pg/mL
same,IL-9 cytokine concentration,[1]; HaCaT stimulated with IFN-γ,0 pg/mL
same,IL-10 cytokine concentration,[1]; HaCaT stimulated with IFN-γ,0 pg/mL
same,IL-12p70 cytokine concentration,[1]; HaCaT stimulated with IFN-γ,0 pg/mL
same,IL-13 cytokine concentration,[1]; HaCaT stimulated with IFN-γ,0 pg/mL
same,IL-17 cytokine concentration,[1]; HaCaT stimulated with IFN-γ,13.16 pg/mL
same,IL-22 cytokine concentration,[1]; HaCaT stimulated with IFN-γ,0 pg/mL
same,TNF-α cytokine concentration,[1]; HaCaT stimulated with IFN-γ,0 pg/mL
same,IFN-γ cytokine concentration,[1]; HaCaT stimulated with PBS,0 pg/mL
same,IL-1 cytokine concentration,[1]; HaCaT stimulated with PBS,0 pg/mL
same,IL-2 cytokine concentration,[1]; HaCaT stimulated with PBS,18.85 pg/mL
same,IL-4 cytokine concentration,[1]; HaCaT stimulated with PBS,109.04 pg/mL
same,IL-5 cytokine concentration,[1]; HaCaT stimulated with PBS,0 pg/mL
same,IL-6 cytokine concentration,[1]; HaCaT stimulated with PBS,80.55 pg/mL
same,IL-9 cytokine concentration,[1]; HaCaT stimulated with PBS,2.87 pg/mL
same,IL-10 cytokine concentration,[1]; HaCaT stimulated with PBS,61.87 pg/mL
same,IL-12p70 cytokine concentration,[1]; HaCaT stimulated with PBS,0 pg/mL
same,IL-13 cytokine concentration,[1]; HaCaT stimulated with PBS,123.68 pg/mL
same,IL-17 cytokine concentration,[1]; HaCaT stimulated with PBS,12.85 pg/mL
same,IL-22 cytokine concentration,[1]; HaCaT stimulated with PBS,0 pg/mL
same,TNF-α cytokine concentration,[1]; HaCaT stimulated with PBS,0 pg/mL
same,IFN-γ cytokine concentration,[1]; [8],39.23 pg/mL
same,IL-1 cytokine concentration,[1]; [8],0 pg/mL
same,IL-2 cytokine concentration,[1]; [8],0 pg/mL
same,IL-4 cytokine concentration,[1]; [8],0 pg/mL
same,IL-5 cytokine concentration,[1]; [8],16.77 pg/mL
same,IL-6 cytokine concentration,[1]; [8],225.53 pg/mL
same,IL-9 cytokine concentration,[1]; [8],0 pg/mL
same,IL-10 cytokine concentration,[1]; [8],97.56 pg/mL
same,IL-12p70 cytokine concentration,[1]; [8],0 pg/mL
same,IL-13 cytokine concentration,[1]; [8],0 pg/mL
same,IL-17 cytokine concentration,[1]; [8],28.83 pg/mL
same,IL-22 cytokine concentration,[1]; [8],0 pg/mL
same,TNF-α cytokine concentration,[1]; [8],3.93 pg/mL
